In general, TGI refers to the concentration at which net growth stops. Higher therefore signals less potent growth arrest.

Our source for the TGI values is PubChem BioAssay (NCI).

Values joined by “and” are separate entries in the source; they are usually repeats but may differ in a detail not shown here. Equal values may be shown once.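 These data come from cells grown in 96-well plates and exposed to compound for 48 hours at five concentrations. At the TGI there is no net growth.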 Where only a bound is given, the exact number is not on record here.

Test systems include UACC-257 melanoma; SNB-19 CNS; A498 renal; EKVX NSCLC; DU-145 prostate; COLO 205 colon; CCRF-CEM leukemia; ACHN renal; 786-0 renal; HOP-92 NSCLC.
What all share (experiment): DTP human tumour cell line panel, 48 h

In the case of `O[C@@H]1CCC[C@@H]2NC[C@@H](c3ccc4c(c3)OCO4)[C@H]12`, the TGI with UACC-257 melanoma, in the assay on SNB-19 CNS, with A498 renal, in the assay with EKVX NSCLC, with DU-145 prostate and with COLO 205 colon was over 100 µM in each case. The TGI in the assay on CCRF-CEM leukemia, in the assay with ACHN renal, with 786-0 renal and in the assay on HOP-92 NSCLC was over 100 µM in each case.

As to `Cc1cc(Nc2ccc(NS(C)(=O)=O)cc2)c2c(ccc3nccc32)[nH]1`, the TGI was 34.7 µM in the assay on UACC-257 melanoma; 48.8 µM in the assay on SNB-19 CNS; 43 µM in the assay with A498 renal; over 100 µM in the assay with EKVX NSCLC; 40.1 µM in the assay on DU-145 prostate; 35.8 µM in the assay with COLO 205 colon. Also, the TGI in the assay on CCRF-CEM leukemia was over 100 µM; in the assay on ACHN renal, 60.8 µM; with 786-0 renal, 45.2 µM; with HOP-92 NSCLC it was 65.6 µM.

As for `CN(C)CCNC(=O)c1cccc2nc3c(C(=O)NCCN(C)C)cccc3nc12`, the TGI in the assay with UACC-257 melanoma was found to be 4.08 µM; in the assay on SNB-19 CNS, 21.6 µM; in the assay with A498 renal, 4.61 µM; in the assay with EKVX NSCLC, 3.76 µM; in the assay on DU-145 prostate, 12.8 µM; with COLO 205 colon, 1.87 µM. The TGI came to 12.7 µM with CCRF-CEM leukemia, 22.3 µM in the assay on ACHN renal, 9.88 µM in the assay on 786-0 renal and 7.83 µM with HOP-92 NSCLC.

For the compound `C=CCOC(=O)N1c2ccc(O)cc2[C@@]23O[C@@]24[C@@H]1C#C/C=C\C#C[C@]3(O)C(OC)(OC)C[C@@H]4C`, the TGI is 44.1 µM in the assay on UACC-257 melanoma; over 100 µM in the assay on SNB-19 CNS; 67.6 µM with A498 renal; over 100 µM in the assay on EKVX NSCLC; over 100 µM in the assay on DU-145 prostate; 33.1 µM with COLO 205 colon. The TGI stood at 76.8 µM in the assay with CCRF-CEM leukemia, 72.3 µM in the assay with ACHN renal, 78.3 µM in the assay with 786-0 renal and 77.9 µM with HOP-92 NSCLC.

As to `Cc1ccc(N=Nc2c(O)ccc3cc(S(=O)(=O)O)ccc23)cc1`, the TGI in the assay with UACC-257 melanoma, in the assay with SNB-19 CNS, with A498 renal, in the assay on EKVX NSCLC, with DU-145 prostate and in the assay on COLO 205 colon was over 100 µM throughout. In addition, the TGI with CCRF-CEM leukemia is over 100 µM; with ACHN renal, over 100 µM; in the assay with 786-0 renal it was > 100 µM and 25.2 µM; in the assay with HOP-92 NSCLC it was over 100 µM.

As for `CC(=O)O[C@H]1C[C@@H](OC(C)=O)[C@@](C)(O)[C@@H]2[C@@H](OC(C)=O)[C@@]3(O)[C@H](/C=C(/CO)[C@H]4O[C@H]4[C@@H](OC(C)=O)[C@@]12C)OC(=O)[C@@H]3C`, the TGI in the assay on UACC-257 melanoma was over 25 µM; in the assay on SNB-19 CNS, over 25 µM; in the assay with A498 renal it was over 25 µM; with EKVX NSCLC it was over 25 µM; in the assay on DU-145 prostate, 12 µM; in the assay on COLO 205 colon, over 25 µM. Besides, the TGI in the assay with CCRF-CEM leukemia, in the assay with ACHN renal, in the assay with 786-0 renal and in the assay on HOP-92 NSCLC was over 25 µM throughout.

Consider `CCOC(=O)CCN1C(=O)C(=O)N(c2ccc(OC)cc2)C1=S`, for which the TGI in the assay with UACC-257 melanoma, in the assay on SNB-19 CNS, in the assay with A498 renal, with EKVX NSCLC, in the assay with DU-145 prostate and in the assay on COLO 205 colon was over 100 µM each time. In addition, the TGI in the assay with CCRF-CEM leukemia, with ACHN renal, in the assay on 786-0 renal and with HOP-92 NSCLC was over 100 µM each time.

Take `COC(=O)c1c(C)cccc1C1CN=NC12Cc1cc(C)cc(C)c1C2=O` (stereo not given): the TGI in the assay with UACC-257 melanoma was 80.3 µM; with SNB-19 CNS, over 100 µM; in the assay on A498 renal, 74.9 µM; in the assay on EKVX NSCLC, over 100 µM; in the assay with DU-145 prostate it was over 100 µM; with COLO 205 colon, 31.9 µM. Also, the TGI was 63.8 µM with CCRF-CEM leukemia, over 100 µM in the assay on ACHN renal, over 100 µM in the assay on 786-0 renal and 64.2 µM with HOP-92 NSCLC.

In the case of `Cc1c(C)c(C)c(-n2c(=O)n(C)c(=O)n2-c2cc(C(C)(C)C)cc(C(C)(C)C)c2O)c(C)c1C`, the TGI was found to be 23.9 µM with UACC-257 melanoma; 20.9 µM in the assay on SNB-19 CNS; 26.3 µM in the assay on A498 renal; 22.8 µM with EKVX NSCLC; 25.9 µM in the assay with DU-145 prostate; 20 µM in the assay with COLO 205 colon. Also, the TGI with CCRF-CEM leukemia worked out at 30.8 µM; with ACHN renal it was 24.8 µM; with 786-0 renal, 22.4 µM; in the assay with HOP-92 NSCLC, 17.6 µM.

As to `C=CCOC(OCC=C)/C(Br)=C/C`, the TGI with UACC-257 melanoma was over 100 µM; in the assay with SNB-19 CNS it was over 100 µM; in the assay with A498 renal it was over 100 µM; in the assay with EKVX NSCLC it was over 100 µM; in the assay on DU-145 prostate, over 100 µM; with COLO 205 colon, 52.9 µM. Besides, the TGI with CCRF-CEM leukemia is over 100 µM; with ACHN renal, 45.3 µM; in the assay with 786-0 renal it was 34 µM; with HOP-92 NSCLC, over 100 µM.

Regarding `CCCCSC1=N/C(=C\c2ccc(N(C)C)cc2)C(=O)N1`, the TGI was 56.7 µM in the assay with UACC-257 melanoma; over 100 µM with SNB-19 CNS; 40.4 µM in the assay with A498 renal; 76.5 µM in the assay on EKVX NSCLC; over 100 µM with DU-145 prostate; over 100 µM in the assay on COLO 205 colon. For the same compound, the TGI is over 100 µM with CCRF-CEM leukemia, over 100 µM with ACHN renal, 42.9 µM in the assay with 786-0 renal and 96.2 µM with HOP-92 NSCLC.

Consider `CO/N=C(\C([O-])=N\[n+]1cnn(CC(=O)OC(C)(C)C)c1)c1csc(NC(c2ccccc2)(c2ccccc2)c2ccccc2)n1`, for which the concentration for total growth inhibition (TGI) in the assay with UACC-257 melanoma, in the assay with SNB-19 CNS, with A498 renal, in the assay with EKVX NSCLC, with DU-145 prostate and with COLO 205 colon was over 10 µM in each case. Also, the TGI with CCRF-CEM leukemia, in the assay on ACHN renal, with 786-0 renal and in the assay on HOP-92 NSCLC was over 10 µM in each case.
